Assay results reported in ChEMBL document CHEMBL1201862, “PubChem BioAssay data set” (2004).
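These data come from cells grown in 96-well plates and exposed to compound for 48 hours at five concentrations. GI50 = concentration required for 50% inhibition of growth.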 Activity calls are given as the source filed them. No stated cut-off is given here; in the data, active = GI50 up to about 1.1 µM and inactive = higher.

Legend:
Experiment in all cases: NCI tumour cell line growth inhibition, 48 h
[1] = tested on: CAKI-1
[2] = tested on: KM12
[3] = tested on: SK-OV-3
[4] = tested on: Malme-3M
[5] = tested on: ACHN
[6] = tested on: K562
[7] = tested on: M14
[8] = tested on: A549
[9] = tested on: SK-MEL-28
[10] = tested on: SNB-75
[11] = tested on: U-251
[12] = tested on: OVCAR-4
[13] = tested on: SN12C
[14] = tested on: NCI-H23
[15] = tested on: SR
[16] = tested on: HCC 2998

Measured: GI50

CCOc1ccc(OP2(=O)NC(=O)C=C(C)N2)cc1 (stereo unspecified)
inactive: [1] > 100 µM | [2] > 100 µM | [3] > 100 µM | [4] > 100 µM | [5] 90.8 µM | [6] > 100 µM | [7] > 100 µM | [8] > 100 µM | [9] > 100 µM | [10] > 100 µM | [11] > 100 µM | [12] > 100 µM | [13] > 100 µM | [14] > 100 µM | [15] 48.4 µM

CCc1cccc(C(C)CC)c1NC(=O)CC1C(=O)Nc2ccccc2S1(=O)=O (stereo unspecified)
inactive: [1] 15.4 µM | [2] 11.5 µM | [3] 43.2 µM | [4] 36.5 µM | [5] 23.6 µM | [6] 4.95 µM | [7] 41.4 µM | [8] 24.8 µM | [9] 53.2 µM | [10] 14.8 µM | [16] 6.17 µM | [11] 40.3 µM | [12] 12.8 µM | [13] 18.4 µM | [14] 7.45 µM

CCOc1nc(OCC)nc(-c2cccn2-c2ccccc2)n1
inactive: [1] 30.5 µM | [2] 28.5 µM | [3] 33 µM | [4] 21.4 µM | [5] 32.2 µM | [6] 30.5 µM | [7] 38.3 µM | [8] 37.1 µM | [9] 35.4 µM | [16] 32.3 µM | [11] 18.5 µM | [12] 25.8 µM | [13] 45.6 µM | [14] 30.8 µM | [15] 26.3 µM

O=C(c1ccncc1)n1nc(-c2ccccc2)c(/N=N/c2ccc([N+](=O)[O-])cc2)c1-c1ccccc1
inactive: [1] 78.5 µM | [2] 34.8 µM | [3] 94.8 µM | [4] 90.6 µM | [6] 54.7 µM | [7] 92 µM | [8] 55.7 µM | [9] > 100 µM | [10] 12.6 µM | [16] 71.3 µM | [12] 15 µM | [13] > 100 µM | [14] 22.6 µM | [15] 45.3 µM

COc1ccc2c([nH]c3cc(O)c(C)cc32)c1C=O
inactive: [2] > 25 µM | [3] > 25 µM | [4] > 25 µM | [5] > 25 µM | [6] 14.6 µM | [7] > 25 µM | [8] 18.5 µM | [9] > 25 µM | [16] > 25 µM | [11] > 25 µM | [12] > 25 µM | [13] > 25 µM | [15] 18.9 µM

CC1C=CC(C(N)C(=O)O)O1 (stereo unspecified)
inactive: [1] > 100 µM | [2] > 100 µM | [3] > 100 µM | [4] > 100 µM | [5] > 100 µM | [6] 51.3 µM | [7] > 100 µM | [8] > 100 µM | [9] > 100 µM | [10] > 100 µM | [16] > 100 µM | [11] > 100 µM | [12] > 100 µM | [13] > 100 µM | [14] > 100 µM | [15] > 100 µM

Nn1c(S)nnc1N/N=C1/C(=O)Nc2c(Cl)cc(Cl)cc21
inactive: [1] 69 µM | [2] > 100 µM | [3] 37.2 µM | [4] > 100 µM | [5] 76.9 µM | [6] 31.2 µM | [7] > 100 µM | [8] > 100 µM | [16] 58.2 µM | [11] > 100 µM | [12] > 100 µM | [13] 94.8 µM | [14] > 100 µM | [15] 38.3 µM

Nc1ccc2nc(Nc3ccc(Cl)c(Cl)c3)cnc2c1
inactive: [1] 28.8 µM | [2] 15.6 µM | [4] 18.5 µM | [5] 22.2 µM | [6] 19 µM | [7] 14.3 µM | [8] 15.7 µM | [9] 17.6 µM | [10] 82.6 µM | [16] 16.1 µM | [11] 19.4 µM | [12] 17 µM | [13] 14.9 µM | [14] 22.4 µM | [15] 2.44 µM

C=CCNC(=S)OCCCCCCCCCC
inactive: [1] 19.1 µM | [2] 12.4 µM | [3] 24.3 µM | [4] 19.6 µM | [5] 18.5 µM | [6] 13.8 µM | [7] 18.1 µM | [8] 25.3 µM | [9] 23.6 µM | [10] 23.6 µM | [16] 17.7 µM | [11] 16.7 µM | [12] 16.5 µM | [13] 17.7 µM | [14] 19.8 µM | [15] 20.9 µM

CC(=O)OCC1OC(N=[N+]=[N-])C(OC(C)=O)C(OC(C)=O)C1OC1OC(COC(C)=O)C(OC(C)=O)C(OC(C)=O)C1OC(C)=O (stereo unspecified)
inactive: [1] > 100 µM | [2] > 100 µM | [3] > 100 µM | [4] > 100 µM | [5] > 100 µM | [6] > 100 µM | [7] > 100 µM | [8] > 100 µM | [9] > 100 µM | [10] 20.5 µM | [16] > 100 µM | [11] > 100 µM | [12] > 100 µM | [13] > 100 µM | [14] > 100 µM

CN1CCc2c1nc(-c1ccccc1)c1c2N(C)CC1
inactive: [1] 28.1 µM | [2] 48.4 µM | [3] > 100 µM | [4] 91.4 µM | [5] > 100 µM | [6] 25.4 µM | [7] 44.8 µM | [8] > 100 µM | [10] > 100 µM | [16] 99.3 µM | [11] > 100 µM | [12] 57 µM | [13] 62.7 µM | [14] 55.7 µM

O=C(CC1C(=O)Nc2ccccc2[S+]1[O-])Nc1cc(Cl)ccc1Cl (stereo unspecified)
inactive: [1] > 100 µM | [4] > 100 µM | [5] > 100 µM | [6] > 100 µM | [7] > 100 µM | [8] > 100 µM | [9] > 100 µM | [10] > 100 µM | [16] > 100 µM | [11] > 100 µM | [13] > 100 µM | [14] > 100 µM | [15] > 100 µM

CCCCCCCCCCCCCCCCCCCCCCC(=O)N[C@H]1CCc2cc(OC)c(OC)c(OC)c2-c2ccc(SC)c(=O)cc21
inactive: [1] 46.7 µM | [2] 35.2 µM | [3] 7.19 µM | [4] 51.5 µM | [5] 63.8 µM | [6] 30.5 µM | [7] 27.5 µM | [8] 26.4 µM | [9] 84.5 µM | [10] 20.2 µM | [16] 25.5 µM | [11] 24.2 µM | [12] > 100 µM | [13] 28.2 µM | [14] 25.5 µM | [15] 23.5 µM
